Data set [1] has as its system vancomycin- and gentamicin-resistant Enterococcus faecium. In words: microbe, parasite or virus in culture. The data set is classed as cell-based. Conditions: Enterococcus faecium, 0.0 (Control). The text has this:
The agents of the present invention are not limited to the reversal of resistance in Staphylococcus. The test strains in Table 5 are patient-isolates of vancomycin- and gentamicin-resistant Enterococcus faecium. At the time of isolation, they were commonly resistant to all clinically useable antimicrobial agents.

Data set [2] has the same test system. Briefly: microbe, parasite or virus in culture. The data set is classed as cell-based. Conditions: ATCC29212, read-out: MIC of vancomycin, ATCC 29212 (vancomycin-sensitive reference strain), 0.0 (Control).
The test system of data set [3] is VRE. Briefly: Antimicrobial plus BTA against VRE (Table 7). The data set is classed as cell-based, enterococci. Conditions: vancomycin alone.
For data set [4], the system named is MRSA. Briefly: Antimicrobial plus BTA against recent clinical MRSA isolates (Table 7). The data set is classed as cell-based, Staphylococcus aureus. Conditions: vancomycin alone. The source says:
The four clinical isolates were isolated from patients during the first three months of 2003. […] An intermediate MRSA has been included, as methicillin-resistance has been achieved by means other than production of PBP2a.

The test system of data set [5] is glycopeptide-resistant enterococci. Conditions: cited from earlier work.
The subject of data set [6] is MRSA with intermediate resistance to glycopeptides. In words: MIC of vancomycin or teicoplanin for MRSA with intermediate resistance to glycopeptides grown with GBE or NAGly (Table 4). Conditions: for MIC: Staphylococcus aureus. Type of data set: cell-based, Staphylococcus aureus.
For data set [7] the following is noted: cited from earlier work.
[8] abbreviates: vanA, E. faecium and E. faecalis.

Read-outs that look alike come from different tables or passages of the source. Bounds are passed on as bounds.

Turning to `CN[C@H](CC(C)C)C(=O)N[C@H]1C(=O)N[C@@H](CC(N)=O)C(=O)N[C@H]2C(=O)N[C@H]3C(=O)N[C@H](C(=O)N[C@H](C(=O)O)c4cc(O)cc(O)c4-c4cc3ccc4O)[C@H](O)c3ccc(c(Cl)c3)Oc3cc2cc(c3O[C@@H]2O[C@H](CO)[C@@H](O)[C@H](O)[C@H]2O[C@H]2C[C@](C)(N)[C@H](O)[C@H](C)O2)Oc2ccc(cc2Cl)[C@H]1O` [vancomycin], the MIC in data set [1] (read-out: MIC of vancomycin, BBC) amounted to 32 µg/mL; in data set [1] (read-out: MIC of vancomycin, E254) it was 128 µg/mL; in data set [1] (read-out: MIC of vancomycin, E267) it was 128 µg/mL; in data set [1] (read-out: MIC of vancomycin, E271) it was 64 µg/mL; in data set [1] (read-out: MIC of vancomycin, E285), 64 µg/mL; in data set [1] (read-out: MIC of vancomycin, E297), 128 µg/mL. Also, the MIC in data set [1] (read-out: MIC of vancomycin, GBC) was determined as 64 µg/mL; in data set [1] (read-out: MIC of vancomycin, S226) it was 128 µg/mL; in data set [1] (read-out: MIC of vancomycin, S227) it was 128 µg/mL; in data set [1] (read-out: MIC of vancomycin, S283) it was 64 µg/mL; in data set [1] (read-out: MIC of vancomycin, S302) it was 64 µg/mL; in data set [1] (read-out: MIC of vancomycin, S315), 64 µg/mL. For the same compound, the MIC in data set [1] (read-out: MIC of vancomycin, S317) was found to be 128 µg/mL; in data set [1] (read-out: MIC of vancomycin, S319) it was 64 µg/mL; in data set [1] (read-out: MIC of vancomycin, S333), 64 µg/mL; in data set [1] (read-out: MIC of vancomycin, S337) it was 32 µg/mL; in data set [1] (read-out: MIC of vancomycin, S393), 64 µg/mL; in data set [1] (read-out: MIC of vancomycin, S497) it was 64 µg/mL. The MIC in data set [1] (read-out: MIC of vancomycin, S556) is 64 µg/mL; in data set [1] (read-out: MIC of vancomycin, WBC) it was 64 µg/mL; in data set [2] it was 2 µg/mL; in data set [6] (MRSA / NCTC 12493, read-out: MIC of vancomycin, NCTC 12493, Control) it was 0.5 µg/mL; in data set [6] (MRSA / NCTC 12493, read-out: MIC of vancomycin, reference strain NCTC 12493, as stated in text on Table 1) it was 2 µg/mL; in data set [6] (MRSA / VISA, read-out: MIC of vancomycin, L266 (first line), EMRSA-17 (VISA), Control), 8 µg/mL. The MIC in data set [6] (MRSA / VISA, read-out: MIC of vancomycin, L266 (second line), EMRSA-17 (VISA), Control) was 8 µg/mL. Further, the Vancomycin (antimicrobial plus BTA; quantity not named, MIC implied) is above 256 µg/mL in data set [3], 1 µg/mL in data set [4] (EMRSA-16), 2 µg/mL in data set [4] (EMRSA-17) and 0.5 µg/mL in data set [4] (I-MRSA). Besides, the “level of vancomycin to which resistance is conferred” value is at least 256 mg/L in data set [5] (setting [8]) and 16 mg/L in data set [5] (vanE, E. faecalis).
Turning to teicoplanin, the half life in data set [7] was 12 h. The “level of teicoplanin to which resistance is conferred” value was at least 32 mg/L in data set [5] (setting [8]); at most 1.0 in data set [5] (vanB); at most 1.0 in data set [5] (vanC1, vanC2, vanC3); 0.5 mg/L in data set [5] (vanE, E. faecalis). The MIC of teicoplanin in data set [6] (L265, EMRSA-16 (TISA), Control) came to 32 µg/mL; in data set [6] (L266, EMRSA-16 (TISA), Control), 8 µg/mL; in data set [6] (NCTC 12493, Control) it was 0.25 µg/mL.

Source of the values: patent US20060040871A1, “Bacterial transforming agent” (priority 2003, published 2006).
